What was measured:
Test in all cases: cell viability (% survival relative to DMSO control); higher = less cytotoxic
Settings in all cases: 72 h
[1] = test system: myeloid leukemia patient primary cells Pat.11
Summary of the method: (§1)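 Mononuclear cells from patients with AML or CML were thawed, purified on Ficoll and placed in RPMI 1640 with 10% FBS at 10,000 cells/well on 384-well plates. The plates came pre-printed with 70 compounds at five tenfold concentrations spanning 1–10,000 nM, in duplicate, and cells were exposed for 72 h. CellTiter-Glo gave viability, scaled between DMSO wells and wells with 10 μM proteasome inhibitor. Where reported, area under the curve was obtained from log-logistic fits with four parameters using the drc and PharmacoGx R packages.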

[2] = test system: myeloid leukemia patient primary cells Pat.12
Summary of the method: as §1

[3] = test system: myeloid leukemia patient primary cells Pat.13
Summary of the method: as §1

[4] = test system: myeloid leukemia patient primary cells Pat.15
Summary of the method: as §1

[5] = test system: myeloid leukemia patient primary cells Pat.1
Summary of the method: as §1

[6] = test system: myeloid leukemia patient primary cells Pat.3
Summary of the method: as §1

[7] = test system: myeloid leukemia patient primary cells Pat.4
Summary of the method: as §1

[8] = test system: myeloid leukemia patient primary cells Pat.5
Summary of the method: as §1

[9] = test system: myeloid leukemia patient primary cells Pat.6
Summary of the method: as §1

[10] = test system: myeloid leukemia patient primary cells Pat.7
Summary of the method: as §1

[11] = test system: myeloid leukemia patient primary cells Pat.9
Summary of the method: as §1

With `C[C@]12C=CC(=O)C=C1CC[C@@H]1[C@@H]2[C@@H](O)C[C@@]2(C)[C@H]1CC[C@]2(O)C(=O)CO` [Prednisolone] the cell viability ([1]; 1 nM) was 96.9%, the cell viability ([1]; 10 nM) was 93.5% and the cell viability ([1]; 100 nM) was 85%. For the same compound, the cell viability ([1]; 1000 nM) was 83%, the cell viability ([1]; 10000 nM) was 64.8% and the cell viability ([2]; 1 nM) was 89%. For the same compound, the cell viability ([2]; 10 nM) was 88.8%, the cell viability ([2]; 100 nM) was 95.7% and the cell viability ([2]; 1000 nM) was 83.9%. For the same compound, the cell viability ([2]; 10000 nM) was 79%, the cell viability ([3]; 1 nM) was 93.4% and the cell viability ([3]; 10 nM) was 82%. The cell viability ([3]; 100 nM) was 92.6%, the cell viability ([3]; 1000 nM) was greater than 100% and the cell viability ([3]; 10000 nM) was greater than 100%. It also gave a cell viability ([4]; 1 nM) of 81.1%, a cell viability ([4]; 10 nM) of 88.6% and a cell viability ([4]; 100 nM) of 86.1%. The cell viability ([4]; 1000 nM) was 75.4%, the cell viability ([4]; 10000 nM) was 61.2% and the cell viability ([5]; 1 nM) was 83.7%. The cell viability ([5]; 10 nM) was 69.7%, the cell viability ([5]; 100 nM) was greater than 100% and the cell viability ([5]; 1000 nM) was greater than 100%. It also gave a cell viability ([5]; 10000 nM) of 97.2%, a cell viability ([6]; 1 nM) of 95% and a cell viability ([6]; 10 nM) of 71.2%. For the same compound, the cell viability ([6]; 100 nM) was 73.9%, the cell viability ([6]; 1000 nM) was 46% and the cell viability ([6]; 10000 nM) was 35.2%. The cell viability ([7]; 1 nM) was 95.3%, the cell viability ([7]; 10 nM) was 78.8% and the cell viability ([7]; 100 nM) was 78.4%. For the same compound, the cell viability ([7]; 1000 nM) was 75.8%, the cell viability ([7]; 10000 nM) was 53.7% and the cell viability ([8]; 1 nM) was 40.8%. For the same compound, the cell viability ([8]; 10 nM) was 10.3%, the cell viability ([8]; 100 nM) was 21.7% and the cell viability ([8]; 1000 nM) was 72%. It also gave a cell viability ([8]; 10000 nM) of 20.7%, a cell viability ([9]; 1 nM) greater than 100% and a cell viability ([9]; 10 nM) of 75.7%. It also gave a cell viability ([9]; 100 nM) of 89.4%, a cell viability ([9]; 1000 nM) of 78.5% and a cell viability ([9]; 10000 nM) of 66.2%. For the same compound, the cell viability ([10]; 1 nM) was 66.5%, the cell viability ([10]; 10 nM) was 60.7% and the cell viability ([10]; 100 nM) was 84.5%. The cell viability ([10]; 1000 nM) was 83.6%, the cell viability ([10]; 10000 nM) was 83.4% and the cell viability ([11]; 1 nM) was 99.2%. The cell viability ([11]; 10 nM) was 18.2%, the cell viability ([11]; 100 nM) was 84.8% and the cell viability ([11]; 1000 nM) was greater than 100%. It also gave a cell viability ([11]; 10000 nM) greater than 100%.
Compound `C=CCN(C)CCCCCCOc1ccc(C(=O)c2ccc(Br)cc2)c(F)c1.O=C(O)/C=C/C(=O)O` [Ro 48-8071 fumarate] has a cell viability ([1]; 1 nM) of 98.4%, a cell viability ([1]; 10 nM) of 100% and a cell viability ([1]; 100 nM) of 97.9%. It also gave a cell viability ([1]; 1000 nM) of 96.5%, a cell viability ([1]; 10000 nM) of 72.2% and a cell viability ([2]; 1 nM) of 96.5%. The cell viability ([2]; 10 nM) was 91.5%, the cell viability ([2]; 100 nM) was 93.7% and the cell viability ([2]; 1000 nM) was 82.9%. For the same compound, the cell viability ([2]; 10000 nM) was 77.6%, the cell viability ([3]; 1 nM) was 92.9% and the cell viability ([3]; 10 nM) was 98.7%. The cell viability ([3]; 100 nM) was 82.6%, the cell viability ([3]; 1000 nM) was 85.6% and the cell viability ([3]; 10000 nM) was 51.7%. For the same compound, the cell viability ([4]; 1 nM) was 84%, the cell viability ([4]; 10 nM) was 94.1% and the cell viability ([4]; 100 nM) was 99.4%. It also gave a cell viability ([4]; 1000 nM) of 94.3%, a cell viability ([4]; 10000 nM) of 56.6% and a cell viability ([5]; 1 nM) of 97.8%. The cell viability ([5]; 10 nM) was 94.5%, the cell viability ([5]; 100 nM) was 97.4% and the cell viability ([5]; 1000 nM) was 82.7%. For the same compound, the cell viability ([5]; 10000 nM) was 37.2%, the cell viability ([6]; 1 nM) was 55% and the cell viability ([6]; 10 nM) was 59.7%. The cell viability ([6]; 100 nM) was 28.2%, the cell viability ([6]; 1000 nM) was 21.8% and the cell viability ([6]; 10000 nM) was 6.91%. For the same compound, the cell viability ([7]; 1 nM) was 86.4%, the cell viability ([7]; 10 nM) was 92% and the cell viability ([7]; 100 nM) was 88.3%. It also gave a cell viability ([7]; 1000 nM) of 88.5%, a cell viability ([7]; 10000 nM) of 56.3% and a cell viability ([8]; 1 nM) greater than 100%. The cell viability ([8]; 10 nM) was 61.6%, the cell viability ([8]; 100 nM) was 73.3% and the cell viability ([8]; 1000 nM) was 73.5%. For the same compound, the cell viability ([8]; 10000 nM) was 0.265%, the cell viability ([9]; 1 nM) was 99.9% and the cell viability ([9]; 10 nM) was greater than 100%. For the same compound, the cell viability ([9]; 100 nM) was 87.1%, the cell viability ([9]; 1000 nM) was 92.9% and the cell viability ([9]; 10000 nM) was 37.7%. The cell viability ([10]; 1 nM) was greater than 100%, the cell viability ([10]; 10 nM) was greater than 100% and the cell viability ([10]; 100 nM) was 85.7%. It also gave a cell viability ([10]; 1000 nM) of 61.7%, a cell viability ([10]; 10000 nM) of less than 0% and a cell viability ([11]; 1 nM) of 90.4%. For the same compound, the cell viability ([11]; 10 nM) was 69.8%, the cell viability ([11]; 100 nM) was 87.2% and the cell viability ([11]; 1000 nM) was 84.8%. For the same compound, the cell viability ([11]; 10000 nM) was less than 0%.
`CN(CCOc1ccc(Cc2sc(O)nc2O)cc1)c1ccccn1` [Rosiglitazone] showed a cell viability ([1]; 1 nM) of 98.6%, a cell viability ([1]; 10 nM) of 92.1% and a cell viability ([1]; 100 nM) of 95.7%. For the same compound, the cell viability ([1]; 1000 nM) was 97.2%, the cell viability ([1]; 10000 nM) was 88.1% and the cell viability ([2]; 1 nM) was greater than 100%. The cell viability ([2]; 10 nM) was 97.4%, the cell viability ([2]; 100 nM) was 95.7% and the cell viability ([2]; 1000 nM) was 96.5%. The cell viability ([2]; 10000 nM) was 88.9%, the cell viability ([3]; 1 nM) was 80.8% and the cell viability ([3]; 10 nM) was 69.2%. For the same compound, the cell viability ([3]; 100 nM) was 99.9%, the cell viability ([3]; 1000 nM) was 91.9% and the cell viability ([3]; 10000 nM) was 78.3%. For the same compound, the cell viability ([4]; 1 nM) was 93.1%, the cell viability ([4]; 10 nM) was 95% and the cell viability ([4]; 100 nM) was 91.5%. The cell viability ([4]; 1000 nM) was 77.7%, the cell viability ([4]; 10000 nM) was 70% and the cell viability ([5]; 1 nM) was 80.1%. The cell viability ([5]; 10 nM) was 72.6%, the cell viability ([5]; 100 nM) was 92.5% and the cell viability ([5]; 1000 nM) was 95.9%. For the same compound, the cell viability ([5]; 10000 nM) was 84.4%, the cell viability ([6]; 1 nM) was 91.7% and the cell viability ([6]; 10 nM) was 63.6%. For the same compound, the cell viability ([6]; 100 nM) was 99.4%, the cell viability ([6]; 1000 nM) was 79.2% and the cell viability ([6]; 10000 nM) was 36%. The cell viability ([7]; 1 nM) was 83.3%, the cell viability ([7]; 10 nM) was 93% and the cell viability ([7]; 100 nM) was 99.6%. It also gave a cell viability ([7]; 1000 nM) of 94.1%, a cell viability ([7]; 10000 nM) of 95.3% and a cell viability ([8]; 1 nM) of 9.01%. It also gave a cell viability ([8]; 10 nM) of 3.3%, a cell viability ([8]; 100 nM) of 91.7% and a cell viability ([8]; 1000 nM) of 92.8%. The cell viability ([8]; 10000 nM) was 6.86%, the cell viability ([9]; 1 nM) was 89.5% and the cell viability ([9]; 10 nM) was 85.4%. For the same compound, the cell viability ([9]; 100 nM) was 96.7%, the cell viability ([9]; 1000 nM) was 99% and the cell viability ([9]; 10000 nM) was 77.9%. For the same compound, the cell viability ([10]; 1 nM) was 62.7%, the cell viability ([10]; 10 nM) was 60% and the cell viability ([10]; 100 nM) was greater than 100%. It also gave a cell viability ([10]; 1000 nM) of 88.5%, a cell viability ([10]; 10000 nM) of 66% and a cell viability ([11]; 1 nM) of 55%. The cell viability ([11]; 10 nM) was 24.9%, the cell viability ([11]; 100 nM) was 94.9% and the cell viability ([11]; 1000 nM) was 61.9%. The cell viability ([11]; 10000 nM) was 29.7%.
